The text below walks through data of patent US8088808B2, “Substituted N-phenyl-bipyrrolidine carboxamides and therapeutic use thereof” (Sanofi, priority 2007, dated 2012).

pKi: −log10 of the molar value. Structures can show the parent of a compound that is named as a salt.

For experiment [1], the target named is rhesus (Macaca Mulatta) H3 receptor (Macaca mulatta, UniProt Q865E1). Description: Rhesus H3 radioligand binding assay ([3H]-Methylhistamine displacement, WGA SPA beads). Further details: species or system rhesus monkey (Macaca Mulatta). The method, then: (§1) (Genbank #AY231164). Stably transfected cultures were amplified in tissue culture flasks by standard tissue culture methods and induced to express rhesus H3 by exposure to 500 ng/ml tetracycline (Cellgro) for 24 hours. After induction, cells were dissociated from flasks utilizing Cell Stripper (Cellgro). Cells were centrifuged (1K×g, 5 min) and pellet frozen in an ethanol-dry ice bath to disrupt cell membranes. Frozen cell pellet was re-suspended in 5 mM HEPES (pH 7.4, Invitrogen) at 10 ml/1000 cm2 of harvested cells. The cell suspension was drawn through an 18 gauge needle (2-3×) followed by a 23 gauge needle (2-3×) to further disrupt cell membranes. The cell suspension was centrifuged (40K×g, 30 min). Cell membrane pellet was re-suspended in 5 mM HEPES (pH 7.4, Invitrogen) at a final protein concentration of 10 mg/ml. Rhesus H3 membranes were stored under liquid nitrogen prior to use in [3H]-Methylhistamine and GTPγS radioligand binding assays.
Sequence of rhesus (Macaca Mulatta) H3 receptor (Q865E1 1-445): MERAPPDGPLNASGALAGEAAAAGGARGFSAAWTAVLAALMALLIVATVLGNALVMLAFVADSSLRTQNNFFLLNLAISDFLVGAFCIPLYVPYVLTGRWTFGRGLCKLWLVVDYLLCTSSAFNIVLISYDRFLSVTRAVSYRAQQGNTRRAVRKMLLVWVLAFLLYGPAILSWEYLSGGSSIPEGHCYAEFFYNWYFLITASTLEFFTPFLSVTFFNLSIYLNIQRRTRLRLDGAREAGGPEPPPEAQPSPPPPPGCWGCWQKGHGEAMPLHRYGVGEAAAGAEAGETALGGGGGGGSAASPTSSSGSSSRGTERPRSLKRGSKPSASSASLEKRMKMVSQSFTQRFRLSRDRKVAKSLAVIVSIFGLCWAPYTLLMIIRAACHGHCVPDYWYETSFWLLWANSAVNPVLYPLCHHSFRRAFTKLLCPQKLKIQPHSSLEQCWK
Rhesus H3 radioligand binding assay was performed using rhesus H3 receptor membranes (prepared as described above), [3H]-Methylhistamine (Perkin Elmer) and WGA SPA beads (wheat germ agglutinin scintillation proximity assay) beads (Amersham). The assay was performed in 96-well Opti-Plates (Packard). Each reaction contained 50 μl rhesus H3 membranes (20-30 μg total protein), 50 μl WGA SPA beads (0.1 μg) and 50 μl of 83 Ci/mmol [^3H]-Methylhistamine (final concentration 2 nM) and 50 μl of tested compound. The compounds of this invention and/or vehicle were diluted with binding buffer from 10 mM DMSO stocks. Assay plates were sealed with TopSeal (Perkin Elmer) and mixed on shaker (25° C., 1 hour). Assay plates were read on TopCount scintillation counter (Packard). Results were analyzed by Hill transformation and Ki values were determined by Cheng-Prusoff equation.

Experiment [2] has as its system rhesus H3. Description: GTPγS radioligand binding assay (inhibition of rhesus H3 constitutive functional activity in cell membranes). In kind it is biochemical, rhesus monkey (Macaca Mulatta). To be noted: Table 1; relative to basal level. Here is the method: as §1, with “Rhesus H3 membranes were prepared from the Flp-In T-REx 293 Cell Line (Invitrogen) stably transfected with pcDNA5/FRT/TO (Invitrogen) containing the rhesus monkey (Macaca Mulatta) 445 amino acid H3 receptor. (Genbank” for “(Genbank”

The target in experiment [3] is MCH receptor (Homo sapiens, UniProt Q99705). Description: MCH receptor [125J]-ligand binding filtration assay. To be noted: 10 μM test compound; percent inhibition of ligand binding. The method, then:
The activity of the compounds of this invention at the MCH receptor site, if any was measured by the procedures as set forth below. • Test Compounds The compounds of this invention were stored in a 96-well microtiter plates (1 μL, 10 mM, 100% DMSO). Each of the test sample was diluted with 249 μL of 100% DMSO (dilution 1:250). […] Blank: Assay buffer containing 0.4% DMSO were transferred to the dilution microtiter plates for blanks • Assay Procedure: The filter plates with […] of 0.5% PEI-solution/well were incubated for 2 hours at room temperature. PEI was removed by vacuum filtration just before pipetting (Univac Polyfiltronic/Whatman). The solution of the compound as prepared above (50 μL), or MCH ([…]) or Puffer/DMSO (positive control) were added to 96-well round bottom microtiter plate. Then 50 μl of [^125J]-ligand solution was added followed by 100 μl of membrane suspension. The plates were closed with the lids, and incubated for 60 min. at 25° C. The samples were transferred to GF/B filter plate. The reaction mixture was removed by vacuum filtration, washed 4× with 300 μL ice-cold washing buffer and the washing solution was removed by vacuum filtration. The rubber layer at the bottom of the plate was then removed and the filters were dried over night at room temperature. 25 μL of scintillation cocktail was added and the plates were sealed and, plate frames were added and incubated for 1 hour at room temperature. The radioactivity was then measured, settings ^125J standard, 30 sec./well.

Setting [4] is: Table 1, [3H]-Methylhistamine 2 nM, Cheng-Prusoff.
Where [5] appears, read: Table 2, procedure of Example 42.

Sequence of MCH receptor (Q99705 whole entry): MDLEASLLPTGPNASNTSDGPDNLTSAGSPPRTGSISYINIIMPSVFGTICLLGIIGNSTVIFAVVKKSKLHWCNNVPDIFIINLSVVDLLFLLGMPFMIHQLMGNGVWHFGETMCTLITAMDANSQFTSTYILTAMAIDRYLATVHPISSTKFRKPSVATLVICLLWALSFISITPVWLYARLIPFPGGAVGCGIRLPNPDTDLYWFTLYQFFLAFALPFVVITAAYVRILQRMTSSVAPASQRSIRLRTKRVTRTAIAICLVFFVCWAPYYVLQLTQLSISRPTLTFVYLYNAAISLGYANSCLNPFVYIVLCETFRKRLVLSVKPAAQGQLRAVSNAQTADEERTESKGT

Take `Cc1cc(N2CC[C@H](N3CCC[C@@H]3C)C2)ccc1NC(=O)c1ccoc1` [Example 6, Furan-3-carboxylic acid [2-methyl-4-(2S-methyl-[1,3′S]bipyrrolidinyl-1′-yl)-phenyl]-amide trifluoro-acetate]: the pKi in experiment [1] (setting [4]) and in experiment [1] (setting [5]) was 8.74 in each case. The “Inverse Agonism: % inhibition of Basal GTPγS binding in Rhesus H3” value in experiment [2] is reported as −17%. The inhibition at 10 µM in experiment [3] was -6.9%.
As for `Cc1cc(N2CCC(N3CCCC3C)C2)ccc1NC(=O)C1CCOCC1` (stereo not drawn) [Example 24, Tetrahydro-pyran-4-carboxylic acid [2-methyl-4-(2-methyl[1,3′]bipyrrolidinyl-1′-yl)-phenyl]-amide trifluoroacetate], the pKi in experiment [1] (setting [5]) is 8.17. Also, the inhibition at 10 µM in experiment [3] came out at 8.6%.
In turn, `CC1CCCN1C1CCN(c2ccc(NC(=O)C3C(C)(C)C3(C)C)cc2)C1` (stereo not drawn) [Example 25, 2,2,3,3-Tetramethyl-cyclopropanecarboxylic acid [4-(2-methyl-[1,3′]bipyrrolidinyl-1′-yl)-phenyl]-amide trifluoroacetate] showed a pKi in experiment [1] (setting [5]) of 6.84. Moreover, in experiment [3], the inhibition at 10 µM worked out at 15%.
The molecule `Cc1noc(C)c1C(=O)Nc1ccc(N2CCC(N3CCCC3C)C2)cc1` (stereo not drawn) [Example 26, 3,5-Dimethyl-isoxazole-4-carboxylic acid [4-(2-methyl-[1,3′]bipyrrolidinyl-1′-yl)-phenyl]-amide trifluoroacetate] showed a pKi in experiment [1] (setting [5]) of 8.68. Moreover, the inhibition at 10 µM in experiment [3] is 9.4%.
In turn, `Cc1cc(NC(=O)C2C(C)(C)C2(C)C)ccc1N1CCC(N2CCCC2C)C1` (stereo not drawn) [Example 27, 2,2,3,3-Tetramethyl-cyclopropanecarboxylic acid [3-methyl-4-(2-methyl-[1,3′]bipyrrolidinyl-1′-yl)-phenyl]-amide trifluoroacetate] gave a pKi in experiment [1] (setting [5]) of 7.18. The inhibition at 10 µM in experiment [3] came to 36%.
In experiment [1] (setting [5]), `Cc1nc(C(=O)Nc2ccc(N3CC[C@H](N4CCC[C@@H]4C)C3)cc2C)co1` [Example 28, 2-Methyl-oxazole-4-carboxylic acid [2-methyl-4-(2(S)-methyl-[1,3′(S)]bipyrrolidinyl-1′-yl)-phenyl]-amide trifluoroacetate] had a pKi of 8.34. Moreover, the inhibition at 10 µM in experiment [3] turned out to be 7%.
Taken in the same sequence, the figures for `CC1CCCN1C1CCN(c2ccc(NC(=O)C3C[C@@H]4CC[C@H]3C4)cc2)C1` (stereo partly drawn) [Example 29, (1S,4R)-Bicyclo[2.2.1]heptane-2-carboxylic acid [4-(2-methyl-[1,3′]bipyrrolidinyl-1′-yl)-phenyl]-amide trifluoroacetate] were 7.80 and 11.4%.
Turning to `CC1CCCN1C1CCN(c2ccc(NC(=O)C3CC3)c(C(F)(F)F)c2)C1` (stereo not drawn) [Example 30, Cyclopropanecarboxylic acid [4-(2-methyl-[1,3′]bipyrrolidinyl-1′-yl)-2-trifluoromethyl-phenyl]-amide trifluoroacetate], the pKi in experiment [1] (setting [5]) is 7.83. Besides, the inhibition at 10 µM in experiment [3] came out at 1.2%.
The molecule `Cc1cc(C(=O)Nc2ccc(N3CCC(N4CCCC4C)C3)cc2)n[nH]1` (stereo not drawn) [Example 31, 5-Methyl-1H-pyrazole-3-carboxylic acid [4-(2-methyl-[1,3′]bipyrrolidinyl-1′-yl)-phenyl]-amide trifluoroacetate] had a pKi in experiment [1] (setting [5]) of 7.35. Further, the inhibition at 10 µM in experiment [3] was found to be 30.5%.
Taken in the same sequence, the figures for `Cc1cc(N2CCC(N3CCCC3C)C2)ccc1NC(=O)c1ccc(-n2ccccc2=O)o1` (stereo not drawn) [Example 32, 5-(2-Oxo-2H-pyridin-1-yl)-furan-2-carboxylic acid [2-methyl-4-(2-methyl-[1,3]bipyrrolidinyl-1′-yl)-phenyl]-amide] were 7.48 and 10.9%.
For the molecule `Cc1cc(N2CCC(N3CCCC3C)C2)ccc1NC(=O)c1cn[nH]c1` (stereo not drawn) [Example 33, 1H-Pyrazole-4-carboxylic acid [2-methyl-4-(2-methyl-[1,3′]bipyrrolidinyl-1′-yl)-phenyl]-amide trifluoroacetate], the pKi in experiment [1] (setting [5]) is 7.61. The inhibition at 10 µM in experiment [3] amounted to 9.7%.
For the molecule `Cc1cc(NC(=O)c2cn[nH]c2)ccc1N1CCC(N2CCCC2C)C1` (stereo not drawn) [Example 34, 1H-Pyrazole-4-carboxylic acid [3-methyl-4-(2-methyl-[1,3′]bipyrrolidinyl-1′-yl)-phenyl]-amide trifluoroacetate], the pKi in experiment [1] (setting [5]) is 6.90. The inhibition at 10 µM in experiment [3] came to 16.8%.
`Cc1cc(C(=O)Nc2ccc(N3CCC(N4CCCC4C)C3)cc2C(F)(F)F)n[nH]1` (stereo not drawn) [Example 35, 5-Methyl-1H-pyrazole-3-carboxylic acid [4-(2-methyl-[1,3′]bipyrrolidinyl-1′-yl)-2-trifluoromethyl-phenyl]-amide trifluoroacetate]: the pKi in experiment [1] (setting [5]) was 6.51. Moreover, the inhibition at 10 µM in experiment [3] was 23.5%.
On to `CC1CCCN1C1CCN(c2ccc(NC(=O)CC3CCCC3)cc2)C1` (stereo not drawn) [Example 36, 2-Cyclopentyl-N-[4-(2-methyl-[1,3′]bipyrrolidinyl-1′-yl)-phenyl]-acetamide trifluoroacetate], for which the values for the pKi in experiment [1] (setting [4]) and in experiment [1] (setting [5]) were 8.50 and 8.51, respectively. Moreover, in experiment [2], the “Inverse Agonism: % inhibition of Basal GTPγS binding in Rhesus H3” value is −33%. Also, the inhibition at 10 µM in experiment [3] is 0.7%.
In experiment [1] (setting [5]), `Cc1cc(N2CCC(N3CCCC3C)C2)ccc1NC(=O)c1cc(-c2ccncc2)n[nH]1` (stereo not drawn) [Example 37, 5-Pyridin-4-yl-2H-pyrazole-3-carboxylic acid [2-methyl-4-(2-methyl-[1,3′]bipyrrolidinyl-1′-yl)-phenyl]-amide trifluoroacetate] showed a pKi of 7.85. Also, the inhibition at 10 µM in experiment [3] is 34.4%.
As to `Cc1cc(NC(=O)CC2CCCC2)ccc1N1CCC(N2CCCC2C)C1` (stereo not drawn) [Example 38, 2-Cyclopentyl-N-[3-methyl-4-(2-methyl-[1,3′]bipyrrolidinyl-1′-yl)-phenyl]-acetamide trifluoroacetate], the pKi in experiment [1] (setting [5]) was 7.97. For the same molecule, in experiment [3], the inhibition at 10 µM was 3.7%.
`Cc1cc(N2CC[C@H](N3CCC[C@@H]3C)C2)ccc1NC(=O)C1CCCC1` [Example 39, Cyclopentane carboxylic acid [2-methyl-4-(2(S)-methyl-[1,3′ (S)]bipyrrolidinyl-1′-yl)-phenyl]-amide trifluoroacetate] had a pKi in experiment [1] (setting [5]) of 9.30. Besides, the inhibition at 10 µM in experiment [3] is -7.2%.
On to `CC1CCCN1C1CCN(c2ccc(NC(=O)C3CC3)cc2)C1` (stereo not drawn) [Example 40, Cyclopropanecarboxylic acid [4-(2-methyl-[1,3′]bipyrrolidinyl-1′-yl)-phenyl]-amide trifluoroacetate], for which the pKi in experiment [1] (setting [5]) is 8.01. Further, the inhibition at 10 µM in experiment [3] was -3.4%.
On to `Cc1cc(NC(=O)C2CC2)ccc1N1CCC(N2CCCC2C)C1` (stereo not drawn) [Example 41, Cyclopropanecarboxylic acid [3-methyl-4-(2-methyl[1,3′]bipyrrolidinyl-1′-yl)-phenyl]-amide trifluoroacetate], for which the pKi in experiment [1] (setting [5]) was 7.75. The inhibition at 10 µM in experiment [3] is -1.3%.
